From US20160264593A1 (priority 2013, published 2016)
Where “and” joins values, the source holds several entries; their conditions need not be identical. Equal values may be shown once.

What was measured:
PP2A [1] = experiment: PP2A activity in mouse livers after IP dosing (PP2A immunoprecipitation phosphatase assay, malachite green); type: in vivo, Balb/c mice; conditions: for Average Conc. (group of 3 mice) / Average Relative Activity (group, vehicle = 100) / Conc. (phosphate, single reading, per mouse) / Mean Conc. (per mouse) / Mean Conc. less IgG blank (per mouse) / Relative Conc. (per mouse, to vehicle) / Relative PP2A Activity (per mouse, vehicle = 100): liver
Experimental: (§1) Coomassie (Bradford) Protein Assay Kit (Pierce); PP2A Immunoprecipitation Phosphatase Assay Kit (Millipore); Lysate preparation for low endogenous phosphate: 20 mM imidazole-HCl, 2 mM EDTA, 2 mM EGTA, 1 mM PMSF, 1 mM benzamidine, 10 ug/ml each of aprotinin, leupeptin, antipain, soybean trypsin inhibitor; Normal Mouse IgG (Millipore); Okadaic acid (OA) (Tocris); DMSO (Sigma).
(§2) • Species: Mus Musculus • Strain: Balb/c mice • Age: 6-8 weeks • Sex: female • Body weight: 18-22 g • Vendor: Shanghai Laboratory Animal Center, Shanghai, China; • Number of animals: 66 Balb/c mice plus spare
(§3) The mice were kept in laminar flow rooms at constant temperature and humidity with 4 animals in each cage. • Temperature: 20-25 • Humidity: 40-70%. • Light cycle: 12 hours light and 12 hours dark. • Cages: Made of polycarbonate. The size is 29 cm×17.5 cm×12 cm (L×w×H). The bedding material is wood debris, which is changed once per week. • Diet: Animals had free access to irradiation sterilized dry granule food during the entire study period. • Water: Animals had free access to sterile drinking water. • Cage identification: the identification labels for each cage contained the following information: number of animals, sex, strain, date arrival, treatment, study number, group number, and the starting date of the treatment. • Animal identification: Animals were marked by ear punch.
(§4) All the procedures related to animal handling, care, and the treatment in this study were performed according to guidelines approved by the Institutional Animal Care and Use Committee (IACUC) of WuXi AppTec (Shanghai), following the guidance of the Association for Assessment and Accreditation of Laboratory Animal Care (AAALAC). At the time of routine monitoring, the animals were checked and recorded for any effects of tumor growth on normal behavior such as mobility, food and water consumption (by looking only), body weight gain/loss, eye/hair matting and any other abnormal effect.
(§5) 1. Proper amount of the compounds were weighed. 2. The compounds were dissolved in 4% sterile sodium bicarbonate. 3. All of the compounds should be well dissolved and clear. 4. The compounds should be kept cold once in solution and injected within an hour. 5. The mice were administered intraperitoneally according to their body weights, 20 g mouse was treated with 0.2 ml compound solution. 6. Mice were treated with vehicle and compounds according to Table 1. 7. 3 hours after the dose, 3 mice from each group were euthanized by
(§6) CO2 exposure, and the brains and left lobe of livers were taken and snap-frozen in liquid nitrogen immediately. 6 hours after the dose, the other 3 mice from each group were euthanized by CO2 exposure, and the brains and left lobe of livers were taken and snap-frozen in liquid nitrogen immediately.
(§7) Preparation of malachite green phosphate detection solution Added […] of Solution B to each 1 mL of Solution A, kept at room temperature during use. […] of mixed solution AB is used per assay well.
(§8) Diluted 125 mL Phosphate Standard (Solution C) with 1125 mL of distilled water to make 0.1 mM working solution. The solution was used to prepare a phosphate standard curve as described in the table below.
(§9) 1. 25 μL of each phosphate standards was transferred to wells of microliter plate. 2. Added 100 μL of Malachite Green Solution AB. Mixed carefully without creating bubbles. 3. Cultured for 15 minutes at RT. 4. Measured absorbance at a wavelength between 650 nm in a microliter plate reader.
(§10) 1. Dissolved 1 mg Threonine Phosphopeptide (Catalog #12-219) in 1.10 mL of distilled water to prepare a 1 mM solution. 2. Aliquot peptide solution and stored at ˜20° C. as necessary.
(§11) 1. Mouse brain or liver was homogenized using lysis buffer (25 g/L), centrifuged at 12000 g for 10 minutes at […], and the supernatants were collected. 2. The protein was quantitated, and 240 μg of mouse brain or liver lysate was taken to assay phosphatase activity. 3. […]

PP2A [2] = experiment: PP2A activity in mouse brains after IP dosing (PP2A immunoprecipitation phosphatase assay, malachite green); type: in vivo, Balb/c mice; parameters: Average Conc. (group of 3 mice): unit not given here; conditions: for Average Conc. (group of 3 mice) / Average Relative Activity (group, vehicle = 100) / Conc. (phosphate, single reading, per mouse) / Mean Conc. (per mouse) / Mean Conc. less IgG blank (per mouse) / Relative Conc. (per mouse, to vehicle) / Relative PP2A Activity (per mouse, vehicle = 100): brain
Experimental: as §1, §2, §3, §4, §5, §6, §7, §8, §9, §10, §11

[3] = high dose IP (mpk: 100 1.5, 113 2.2, 151 1.6, 157 2.0), 3 h
[4] = high dose IP (mpk: 100 1.5, 113 2.2, 151 1.6, 157 2.0), 6 h
[5] = low dose IP (mpk: 100 0.75, 113 1.1, 151 0.8, 153 0.85, 157 1.0), 3 h
[6] = low dose IP (mpk: 100 0.75, 113 1.1, 151 0.8, 153 0.85, 157 1.0), 6 h
[7] = high dose IP (mpk: 100 1.5, 113 2.2, 151 1.6, 153 1.7, 157 2.0), 3 h
[8] = high dose IP (mpk: 100 1.5, 113 2.2, 151 1.6, 153 1.7, 157 2.0), 6 h

SMILES: CN1CCN(C(=O)C2C(C(=O)OCC(Cl)(Cl)Cl)[C@H]3CC[C@@H]2O3)CC1 (stereo partly shown) [Compound 113]
- Average Conc. (group of 3 mice) (PP2A [1]; [3]): 138.31
- Average Relative Activity (group, vehicle = 100) (PP2A [1]; [3]): 35.3
- Conc. (phosphate, single reading, per mouse) (PP2A [1]; [3]): 200.67 and 204.55 and 192.25 and 216.22 and 155.1 and 163.31
- Mean Conc. (per mouse) (PP2A [1]; [3]): 202.61 and 204.23 and 159.21
- Mean Conc. less IgG blank (per mouse) (PP2A [1]; [3]): 152.24 and 153.86 and 108.83
- Relative Conc. (per mouse, to vehicle) (PP2A [1]; [3]): 0.39 (2×) and 0.28
- Relative PP2A Activity (per mouse, vehicle = 100) (PP2A [1]; [3]): 38.8 and 39.21 and 27.74
- Average Conc. (group of 3 mice) (PP2A [1]; [4]): 104.16
- Average Relative Activity (group, vehicle = 100) (PP2A [1]; [4]): 26.6
- Conc. (phosphate, single reading, per mouse) (PP2A [1]; [4]): 246.88 and 269.98 and 80.17 and 78.45 and 124.87 and 126.82
- Mean Conc. (per mouse) (PP2A [1]; [4]): 258.43 and 79.31 and 125.84
- Mean Conc. less IgG blank (per mouse) (PP2A [1]; [4]): 208.06 and 28.94 and 75.47
- Relative Conc. (per mouse, to vehicle) (PP2A [1]; [4]): 0.53 and 0.07 and 0.19
- Relative PP2A Activity (per mouse, vehicle = 100) (PP2A [1]; [4]): 53.13 and 7.39 and 19.27
- activity of PP2A in livers as compared with vehicle (statement) (PP2A [1]; high dose IP, 3 h): significantly inhibited
- activity of PP2A in livers as compared with vehicle (statement) (PP2A [1]; high dose IP, 6 h post treatment): significantly inhibited
- Average Conc. (group of 3 mice) (PP2A [1]; [5]): 179.91
- Average Relative Activity (group, vehicle = 100) (PP2A [1]; [5]): 45.9
- Conc. (phosphate, single reading, per mouse) (PP2A [1]; [5]): 258.54 and 266.31 and 211.9 and 190.3 and 226.36 and 228.31
- Mean Conc. (per mouse) (PP2A [1]; [5]): 262.43 and 201.1 and 227.34
- Mean Conc. less IgG blank (per mouse) (PP2A [1]; [5]): 212.05 and 150.73 and 176.96
- Relative Conc. (per mouse, to vehicle) (PP2A [1]; [5]): 0.54 and 0.38 and 0.45
- Relative PP2A Activity (per mouse, vehicle = 100) (PP2A [1]; [5]): 54.04 and 38.41 and 45.1
- Average Conc. (group of 3 mice) (PP2A [1]; [6]): 212.74
- Average Relative Activity (group, vehicle = 100) (PP2A [1]; [6]): 54.3
- Conc. (phosphate, single reading, per mouse) (PP2A [1]; [6]): 229.82 and 254.44 and 279.7 and 291.58 and 266.31 and 256.81
- Mean Conc. (per mouse) (PP2A [1]; [6]): 242.13 and 285.64 and 261.56
- Mean Conc. less IgG blank (per mouse) (PP2A [1]; [6]): 191.76 and 235.27 and 211.19
- Relative Conc. (per mouse, to vehicle) (PP2A [1]; [6]): 0.49 and 0.6 and 0.54
- Relative PP2A Activity (per mouse, vehicle = 100) (PP2A [1]; [6]): 48.97 and 60.08 and 53.93
- activity of PP2A in livers as compared with vehicle (statement) (PP2A [1]; low dose IP, 3 h): significantly inhibited
- activity of PP2A in livers as compared with vehicle (statement) (PP2A [1]; low dose IP, 6 h): significantly inhibited
- Average Conc. (group of 3 mice) (PP2A [2]; [7]): 892.56
- Average Relative Activity (group, vehicle = 100) (PP2A [2]; [7]): 60.76
- Conc. (phosphate, single reading, per mouse) (PP2A [2]; [7]): 1058.59 and 1029.91 and 726.72 and 714.92 and 925.07 and 938.33
- Mean Conc. (per mouse) (PP2A [2]; [7]): 1044.25 and 720.82 and 931.70
- Mean Conc. less IgG blank (per mouse) (PP2A [2]; [7]): 1037.88 and 714.45 and 925.33
- Relative Conc. (per mouse, to vehicle) (PP2A [2]; [7]): 0.71 and 0.49 and 0.64
- Relative PP2A Activity (per mouse, vehicle = 100) (PP2A [2]; [7]): 70.65 and 48.63 and 62.99
- Average Conc. (group of 3 mice) (PP2A [2]; [8]): 897.74
- Average Relative Activity (group, vehicle = 100) (PP2A [2]; [8]): 64.36
- Conc. (phosphate, single reading, per mouse) (PP2A [2]; [8]): 366.91 and 317.74 and 1221.50 and 1051.60 and 1382.49 and 1084.37
- Mean Conc. (per mouse) (PP2A [2]; [8]): 342.32 and 1136.55 and 1233.43
- Mean Conc. less IgG blank (per mouse) (PP2A [2]; [8]): 335.96 and 1130.19 and 1227.07
- Relative Conc. (per mouse, to vehicle) (PP2A [2]; [8]): 0.24 and 0.82 and 0.89
- Relative PP2A Activity (per mouse, vehicle = 100) (PP2A [2]; [8]): 24.09 and 81.03 and 87.97
- activity of PP2A in brains (statement) (PP2A [2]; high dose IP, 3 h): most potent
- Average Conc. (group of 3 mice) (PP2A [2]; [5]): 1540.65
- Average Relative Activity (group, vehicle = 100) (PP2A [2]; [5]): 104.88
- Conc. (phosphate, single reading, per mouse) (PP2A [2]; [5]): 1602.05 and 1620.37 and 1450.70 and 1578.91 and 1521.79 and 1508.30
- Mean Conc. (per mouse) (PP2A [2]; [5]): 1611.21 and 1514.81 and 1515.05
- Mean Conc. less IgG blank (per mouse) (PP2A [2]; [5]): 1604.84 and 1508.44 and 1508.68
- Relative Conc. (per mouse, to vehicle) (PP2A [2]; [5]): 1.10 and 1.04 (2×)
- Relative PP2A Activity (per mouse, vehicle = 100) (PP2A [2]; [5]): 109.24 and 102.68 and 102.70
- Average Conc. (group of 3 mice) (PP2A [2]; [6]): 1212.05
- Average Relative Activity (group, vehicle = 100) (PP2A [2]; [6]): 86.90
- Conc. (phosphate, single reading, per mouse) (PP2A [2]; [6]): 1379.36 and 1456.24 and 1108.96 and 1143.66 and 1072.56 and 1149.69
- Mean Conc. (per mouse) (PP2A [2]; [6]): 1417.80 and 1126.31 and 1111.12
- Mean Conc. less IgG blank (per mouse) (PP2A [2]; [6]): 1411.44 and 1119.94 and 1104.76
- Relative Conc. (per mouse, to vehicle) (PP2A [2]; [6]): 1.02 and 0.81 and 0.80
- Relative PP2A Activity (per mouse, vehicle = 100) (PP2A [2]; [6]): 101.19 and 80.29 and 79.21
